The text below walks through data of patent US20250312326A1, “PHARMACEUTICAL COMPOSITION OF ANTIPLATELET DRUG, AND USE THEREOF” (SHANGHAI CUREGENE PHARMACEUTICAL CO., LTD., priority 2022, published 2025).

Data set [1] can be described thus: Pharmacokinetic in rats: thiol active metabolite in plasma. The settings on record: rat plasma, oral, 10 mg/kg. It is filed as in vivo, Male Sprague-Dawley rats. How it is done: Male Sprague-Dawley rats were used to conduct pharmacokinetic experiment.
Test compounds (clopidogrel and exemplary compounds provided herein) was administrated orally or intravenously to rat under fast condition. Blood samples were collected via jugular vein at 5 min, 15 min, 30 min, 60 min and 120 min time points with EDTA-K2 (anticoagulant), 3′-methoxyphenacyl bromide (MPBr, derivatization reagent) and phenylmethylsulfonyl fluoride (PMSF, stabilizer). Plasma samples were then harvested by centrifuging at 1500 g for 10 min under 2˜8° C. and stored at −80° C. after separation. Plasma samples were loaded to a LC-MS/MS instrument after extraction to determine the concentration of the thiol active metabolite.

The test system of data set [2] is platelet aggregation. Kind of data set: Antiaggregatory action in rats (ex vivo ADP-induced platelet aggregation). Set-up: species or system Male Sprague-Dawley rats. The note with it: rat, oral. How it is done: Male Sprague-Dawley rats were used for ex vivo platelet aggregation experiments. […] The number of platelets in PRP was measured by hematology analyzer (Siemens, ADVIA2120), and adjusted to 4×10^8/mL with PPP. Platelet aggregation was determined using turbidimetric aggregometry method by an automatic platelet aggregometer ([…]). The aggregometer was primarily warmed up to 37° C., and PRP (290 μL) sample was added to the cuvette and set in the automatic platelet aggregometer. […] Antiaggregatory action of test compounds was expressed as inhibition (%) which determined by the relation: […]

For data set [3] the following is noted: human body; cited from earlier work.
For data set [4] the following is noted: loading dose 300-600 mg; cited from earlier work.

For the compound `COC(=O)[C@H](c1ccccc1Cl)N1CCC(SCOC(=O)OC(C)C)/C(=C/C(=O)O)C1` (stereo partly shown) [Compound 1a], in data set [1], the “peak concentration of the thiol active metabolite compared with clopidogrel” value (“peak concentration … compared with clopidogrel” below) is “significantly higher”.
The inhibition is the relative decrease from the control value, in per cent. In the case of `COC(=O)[C@H](c1ccccc1Cl)N1CCC(SCOC(=O)OC(C)C)/C(=C\C(=O)O)C1` (stereo partly shown) [Compound 1b], the inhibition at 2 mg/kg in data set [2] (Platelet, 2 mg/kg, ADP 10 μM, read-out: maximum inhibition of platelet aggregation) was around 45%. For the same compound, the “time to maximum inhibition of platelet aggregation” value in data set [2] (2 mg/kg) worked out at 60 min. Also, the “peak concentration … compared with clopidogrel” value in data set [1] is “significantly higher”.
As to `CCOC(=O)/C=C1\CN([C@H](C(=O)OC)c2ccccc2Cl)CCC1SCOC(=O)OC(C)C` (stereo partly shown) [Compound 2a], in data set [1], the “peak concentration … compared with clopidogrel” value was “significantly higher”.
Take `COC(=O)[C@H](c1ccccc1Cl)N1CCc2sccc2C1` [clopidogrel, Clopidogrel]: the inhibition at 10 mg/kg in data set [2] (Platelet, 10 mg/kg, ADP 10 μM, read-out: maximum inhibition of platelet aggregation) was around 45%. Also, in data set [2] (10 mg/kg), the “time to maximum inhibition of platelet aggregation” value is “about 120 minutes”. In data set [3], the “fraction producing inactive metabolites through non-oxidative hydrolysis” value is “about 85%” and the “fraction undergoing two-step oxidation (cytochrome P450, mainly CYP2C19) to active metabolite H4” value is given as “about 15%”. The “onset of therapeutic effect after loading dose administration” value in data set [4] is 2 h.
